Measured values taken from article PMC9394284, “Discovery of Novel Dual Adenosine A2A and A1 Receptor Antagonists with 1H-Pyrazolo[3,4-d]pyrimidin-6-amine Core Scaffold as Anti-Parkinson’s Disease Agents” (Pharmaceuticals, 2022).

Molecular target: T1, hA2A receptors (Homo sapiens, UniProt P29274)
T1 construct: purchased PerkinElmer RBHA2AM
Assay: radioligand binding to human A2A receptors, HEK-293 membranes
Procedure: The binding affinities of synthesized compounds to human A2A receptors (hA2AR) were measured by assessing competitive binding of ligands to radioligand […] using membrane preparations of human recombinant HEK-293 cells expressing human A2A receptors.
The radioligand-binding assays for adenosine receptors were performed at Eurofins Discovery Services (Panlabs, Taiwan). Briefly, stock solutions of the compounds were prepared in DMSO and further diluted with the incubation buffer to the desired concentration. Final DMSO concentrations in the assay were 1.0%. […] Nonspecific binding was estimated in the presence of 100 μM R(-)-PIA. Membranes were filtered and washed 3 times and the filters were counted to determine specifically bound [^3H]DPCPX. Chemical compounds were screened at 10 μM. […] Nonspecific binding was estimated in the presence of 50.0 μM NECA. […] Nonspecific binding was estimated in the presence of 100 μM NECA. Membranes were filtered and washed 3 times and the filters were counted to determine [^3H]MRS1754 specifically bound. […] Nonspecific binding was estimated in the presence of 1.0 μM IB-MECA.
IC50 values were determined by a nonlinear, least-squares regression analysis using MathIQ^TM (ID Business Solutions Ltd., Guildford, UK). […] The Hill coefficient (nH), which defines the slope of the competitive binding curve, was calculated using MathIQ^TM.

[1] = average of duplicate experiments

T1 sequence (P29274 whole entry): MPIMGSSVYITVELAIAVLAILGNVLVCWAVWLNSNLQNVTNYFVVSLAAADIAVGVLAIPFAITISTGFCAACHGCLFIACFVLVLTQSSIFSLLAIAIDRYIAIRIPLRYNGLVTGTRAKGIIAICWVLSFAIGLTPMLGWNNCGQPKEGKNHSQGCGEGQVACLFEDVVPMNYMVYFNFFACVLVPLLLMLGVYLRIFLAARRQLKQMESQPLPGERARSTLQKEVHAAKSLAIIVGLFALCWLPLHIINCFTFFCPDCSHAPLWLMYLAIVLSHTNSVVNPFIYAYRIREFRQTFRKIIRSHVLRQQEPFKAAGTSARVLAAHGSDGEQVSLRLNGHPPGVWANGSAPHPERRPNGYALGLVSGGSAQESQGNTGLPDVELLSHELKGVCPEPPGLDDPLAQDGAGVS

Cc1cc(Cn2ncc3c(-c4cccc(C#N)c4F)nc(N)nc32)ccc1N [11o, 3-(6-Amino-1-(4-amino-3-methylbenzyl)-1H-pyrazolo[3,4-d]pyrimidin-4-yl)-2-fluorobenzonitrile]
nH (Hill coefficient), A2A: 0.79 | IC50 [1]: 24 nM | Ki [1]: 13.3 nM
